# Laboratory results reported in paper PMC8779255, “Determining the Anticancer Activity of Sphingosine Kinase Inhibitors Containing Heteroatoms in Their Tail Structure” (Pharmaceutics, 2022).
# pIC50: −log10 of the molar value.
# Assays:
# HCT116 cells = experiment: MTT cell viability assay; type: cell-based, human
# Method: (§1) The HT29 and HCT116 cells (human colon cancer), AGS (human gastric cancer), and MIA PaCa-2 cells (human pancreatic cancer) were purchased from Korean Cell Line Bank (Seoul, Korea). Cancer cells were maintained in RPMI (HT29 and AGS) and DMEM (HCT116 and MIA PaCa-2) culture media supplemented with 10% fetal bovine serum (FBS) and 100 U/mL penicillin and streptomycin at 37 °C in a 95% humidified incubator containing 5% CO2. The cytotoxic effect of the compounds was assessed using the MTT cell viability assay. Briefly, 3 × 10^3 cells/well were grown in 96-well plates for 24 h. After treatment with desired concentration of respective compounds for 24 h or 48 h, the EZ-CYTOTOX (10 µM) reagent was added in each well and incubated for 90 min. The absorbance was measured at 450 nm wavelength using Skanlt software 5.0 (Thermo Scientific, Waltham, MA, USA) installed on a Multiskan GO (Thermo Scientific, Waltham, MA, USA) spectrophotometer. Each experiment was independently repeated three times (n = 12).
# HT29 cells [1] = experiment: MTT cell viability assay; type: cell-based, human
# Method: as §1
# HT29 cells [2] = experiment: Annexin V-FITC/PI staining, flow cytometry; type: cell-based, human; conditions: HT29, 10 and/or 20 µM, 24 h
# Method: After treating HT29 and HCT116 cells with compounds 10, 11, 13 and FTY720 according to the manufacturer’s instruction, the annexin V and PI staining technique was employed to determine apoptosis in the cells. Briefly, cells (2.5 × 10^5 cells/well) were seeded in 12-well plates and treated with 10 and/or 20 µM of compounds for 24 h. Cells were collected using trypsin-EDTA and stained with annexin V-FITC dye for 15 min at room temperature, followed by PI staining for 20 min and analyzed by flow cytometer (MACSQuant Analyzer 10; Miltenyi Biotec, Bergisch Gladbach, Germany). The data was analyzed using MACSQuantify^TM version 2.8 software (Miltenyi Biotec, Bergisch Gladbach, Germany) and presented as early apoptosis, late apoptosis, or combined apoptosis percentage. Each experiment was repeated three times independently (n = 6).
# PP2A in HCT116 cells = target: T1, PP2A in HCT116 cells (Homo sapiens, UniProt P67775); experiment: PP2A activity assay (immunoprecipitation kit); type: cell-based; conditions: HCT116, 24 h, 20 µM of compounds 10, 11 and 13; vs nontreated control cells
# T1 construct: endogenous in cells; host or cells: HCT116
# T1 sequence (P67775 whole entry): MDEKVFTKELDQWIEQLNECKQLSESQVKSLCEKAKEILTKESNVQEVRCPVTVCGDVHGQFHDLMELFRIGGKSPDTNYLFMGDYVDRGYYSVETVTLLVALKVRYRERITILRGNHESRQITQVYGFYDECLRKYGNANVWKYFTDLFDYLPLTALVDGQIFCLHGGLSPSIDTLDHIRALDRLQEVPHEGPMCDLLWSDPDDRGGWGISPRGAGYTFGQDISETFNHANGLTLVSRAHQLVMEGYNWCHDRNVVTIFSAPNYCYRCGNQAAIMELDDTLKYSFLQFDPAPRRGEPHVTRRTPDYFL
# Method: The activity of PP2A was measured by using the PP2A kit according to the manufacturer’s instruction. The cell lysate was incubated with anti PP2A, C subunit antibody, and protein A agarose slurry for 2 h at 4 °C. The phosphopeptide solution (60 µL) was mixed and incubated at 30 °C for 10 min in a shaker. After a brief centrifuge, a 25 µL sample was liquated in ½ volume microplate and 100 µL malachite green phosphate detection working solution was added. After color development, absorbance was taken at 650 nm in a Multiskan GO microplate reader. A phosphate standard curve was constructed using phosphate standard, and results were calculated using this standard curve. This experiment was repeated three times (n = 6).
# CYP3A4 = target: T2, CYP3A4 (Homo sapiens, UniProt P08684); experiment: Inhibition of CYP enzymes activity, human liver microsomes; type: in vitro ADME; conditions: human liver microsomes 0.25 mg/mL, 10 μM, midazolam substrate
# T2 construct: Human liver microsomes (0.25 mg/mL); from tissue; host or cells: human liver microsomes
# T2 sequence (P08684 whole entry): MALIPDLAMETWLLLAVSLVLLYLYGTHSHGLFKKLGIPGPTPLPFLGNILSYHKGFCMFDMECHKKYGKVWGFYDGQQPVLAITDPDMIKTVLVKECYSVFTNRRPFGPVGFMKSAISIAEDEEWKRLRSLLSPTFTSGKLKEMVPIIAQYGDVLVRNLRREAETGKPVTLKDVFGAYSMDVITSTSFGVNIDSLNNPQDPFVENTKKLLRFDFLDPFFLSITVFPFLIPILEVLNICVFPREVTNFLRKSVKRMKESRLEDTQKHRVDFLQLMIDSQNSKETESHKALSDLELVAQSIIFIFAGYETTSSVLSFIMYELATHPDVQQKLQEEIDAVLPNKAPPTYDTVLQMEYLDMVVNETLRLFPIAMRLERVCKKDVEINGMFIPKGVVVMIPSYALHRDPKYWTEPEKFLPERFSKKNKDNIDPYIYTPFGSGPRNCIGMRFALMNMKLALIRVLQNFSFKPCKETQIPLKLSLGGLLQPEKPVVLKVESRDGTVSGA
# Method: (§3) By simultaneously analyzing metabolites, the ability of the six compounds to inhibit drug metabolism enzymes was evaluated.
# (§4) Metabolites of each CYP coenzyme indicator drug generated through the above reaction were analyzed using the Shimadzu Nexera XR system and TSQ vantage (Thermo). The HPLC column was a Kinetex C18 column (2.1 × 100 mm^2, 2.6 μm particle size; Phenomenex, Torrance, CA, USA), and the mobile phase was distilled water (A) containing 0.1% formic acid and acetonitrile (B) containing 0.1% formic acid. […] The generated metabolites were quantified using MRM (Multiple Reaction Monitoring) quantification modes, and data were analyzed using Xcalibur (version 1.6.1).
# [3] = In vitro metabolic stability in liver microsomes; type: in vitro ADME, rat
# [4] = In vitro metabolic stability in liver microsomes; type: in vitro ADME, mouse
# SK1 = conditions: known compounds, Figure 1; cited from earlier work
# SK2 = conditions: known compounds, Figure 1; cited from earlier work
# [5] = In vitro metabolic stability in liver microsomes
# Method: Microsome incubation was measured in triplicate in a 1.5 mL Eppendorf tube with 0.1 M potassium phosphate buffer (pH 7.4). […] It has a final volume of 100 mL in the presence of an NADPH regeneration system. In the final incubation mixture, 0.5 mg/mL HLM, 0.1 M potassium phosphate buffer (pH 7.4), and NADPH regeneration system (1 mM NADPH, 10 mM MgCl2) were included. In the pre-incubation mixture, HLM was added, and the mixture was run in a shaking incubator at approximately 350 rpm and 37 °C for 5 min under a Thermomixer (Eppendorf, Hamburg, Germany). Reactions were initiated by the addition of 1 mM NADPH and then quenched by the addition of 40 μL of ice-cold acetonitrile containing 10 μM chlorpropamide (CPP) as an internal standard at 0 and 30 min. After quenching, centrifugation of the incubation mixture was performed at 15,000× g for 5 min at 4 °C. An aliquot of 2 µL of the supernatant was injected into the LC-MS/MS system. The LC-MS/MS system was Xcalibur version 1.1.1 (Thermo Fisher Scientific Inc., Waltham, MA, USA).
# CYP1A2 = target: T3, CYP1A2 (Homo sapiens, UniProt P05177); experiment: Inhibition of CYP enzymes activity, human liver microsomes; conditions: human liver microsomes 0.25 mg/mL, 10 μM, phenacetin substrate
# T3 sequence (P05177 1-516): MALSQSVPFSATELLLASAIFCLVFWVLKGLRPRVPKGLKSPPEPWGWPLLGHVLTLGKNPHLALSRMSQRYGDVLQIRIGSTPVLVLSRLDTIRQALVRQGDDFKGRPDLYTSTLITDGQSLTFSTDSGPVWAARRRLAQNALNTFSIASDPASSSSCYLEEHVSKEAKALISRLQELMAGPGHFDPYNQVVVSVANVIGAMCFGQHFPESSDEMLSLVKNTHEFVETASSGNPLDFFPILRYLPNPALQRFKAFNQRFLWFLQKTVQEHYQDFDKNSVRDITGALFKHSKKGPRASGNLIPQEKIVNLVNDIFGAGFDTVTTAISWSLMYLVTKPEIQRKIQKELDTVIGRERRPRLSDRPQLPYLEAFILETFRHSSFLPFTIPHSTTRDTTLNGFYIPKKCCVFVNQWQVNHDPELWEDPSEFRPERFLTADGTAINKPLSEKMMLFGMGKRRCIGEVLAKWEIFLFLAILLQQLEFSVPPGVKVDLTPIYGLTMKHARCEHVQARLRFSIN
# Method: (§5) Afterward, to terminate the reaction, an acetonitrile solution containing an internal standard (terfenadine) was added, centrifuged for 5 min (14,000 rpm, 4 °C), and the supernatant was injected into the LC-MS/MS system. By simultaneously analyzing metabolites, the ability of the six compounds to inhibit drug metabolism enzymes was evaluated.
# as §4
# CYP2C9 = CYP2C9 (Homo sapiens, UniProt P11712); experiment: as above; conditions: human liver microsomes 0.25 mg/mL, 10 μM, diclofenac substrate
# CYP2C9, sequence (P11712 whole entry): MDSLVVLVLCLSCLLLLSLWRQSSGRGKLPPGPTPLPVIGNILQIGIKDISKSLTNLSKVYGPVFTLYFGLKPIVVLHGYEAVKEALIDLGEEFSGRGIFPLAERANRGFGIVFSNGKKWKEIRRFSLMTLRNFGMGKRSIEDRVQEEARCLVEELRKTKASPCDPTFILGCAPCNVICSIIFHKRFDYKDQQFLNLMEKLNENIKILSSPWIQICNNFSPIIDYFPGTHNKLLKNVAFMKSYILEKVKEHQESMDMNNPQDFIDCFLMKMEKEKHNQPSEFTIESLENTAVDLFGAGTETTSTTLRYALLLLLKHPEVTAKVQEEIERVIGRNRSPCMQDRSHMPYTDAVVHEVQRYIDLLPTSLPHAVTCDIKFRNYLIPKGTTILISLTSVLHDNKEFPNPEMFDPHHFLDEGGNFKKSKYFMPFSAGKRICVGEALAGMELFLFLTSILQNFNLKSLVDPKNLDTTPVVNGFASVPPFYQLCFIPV
# Method: as §3, §4
# CYP2C19 = CYP2C19 (Homo sapiens, UniProt P33261); experiment: as above; conditions: human liver microsomes 0.25 mg/mL, 10 μM, S-mephenytoin substrate
# CYP2C19, sequence (P33261 whole entry): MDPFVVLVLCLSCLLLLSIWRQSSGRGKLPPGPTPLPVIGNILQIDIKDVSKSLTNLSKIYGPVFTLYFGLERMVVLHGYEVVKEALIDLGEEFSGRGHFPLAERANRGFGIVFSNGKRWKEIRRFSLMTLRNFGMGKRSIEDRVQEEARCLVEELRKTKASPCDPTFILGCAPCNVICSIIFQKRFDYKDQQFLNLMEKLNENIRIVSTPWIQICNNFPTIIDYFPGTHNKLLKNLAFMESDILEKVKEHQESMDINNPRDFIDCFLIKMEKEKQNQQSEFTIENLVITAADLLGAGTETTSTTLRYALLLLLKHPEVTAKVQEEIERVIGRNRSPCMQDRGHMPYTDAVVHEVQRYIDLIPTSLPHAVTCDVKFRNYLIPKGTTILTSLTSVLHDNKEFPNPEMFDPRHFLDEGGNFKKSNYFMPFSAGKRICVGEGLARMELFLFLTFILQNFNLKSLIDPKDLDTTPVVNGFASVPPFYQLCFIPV
# Method: as §3, §4
# CYP2D6 = CYP2D6 (Homo sapiens, UniProt P10635); experiment: as above; conditions: human liver microsomes 0.25 mg/mL, 10 μM, dextromethorphan substrate
# CYP2D6, sequence (P10635 whole entry): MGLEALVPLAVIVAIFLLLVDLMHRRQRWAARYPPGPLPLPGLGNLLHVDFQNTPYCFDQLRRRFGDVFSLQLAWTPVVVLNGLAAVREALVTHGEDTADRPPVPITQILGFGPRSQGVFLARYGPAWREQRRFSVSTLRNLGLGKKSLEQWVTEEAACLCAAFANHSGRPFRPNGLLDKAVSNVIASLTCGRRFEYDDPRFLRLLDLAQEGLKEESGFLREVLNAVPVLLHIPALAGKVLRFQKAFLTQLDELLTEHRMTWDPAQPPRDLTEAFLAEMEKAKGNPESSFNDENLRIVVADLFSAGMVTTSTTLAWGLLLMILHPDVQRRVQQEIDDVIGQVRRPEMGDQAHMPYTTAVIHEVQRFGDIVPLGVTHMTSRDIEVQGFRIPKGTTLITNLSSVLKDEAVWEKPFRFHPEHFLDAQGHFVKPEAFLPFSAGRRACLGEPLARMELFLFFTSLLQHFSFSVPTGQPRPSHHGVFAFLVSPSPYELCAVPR
# Method: as §5, §4
# SK1 enzyme = target: T4, SK1 enzyme (Homo sapiens, UniProt Q9NYA1); experiment: SK activity assay (Adapta screening system); type: biochemical; conditions: 20 μM, Figure 5A
# T4 construct: purchased Thermo Fisher Scientific
# T4 sequence (Q9NYA1 whole entry): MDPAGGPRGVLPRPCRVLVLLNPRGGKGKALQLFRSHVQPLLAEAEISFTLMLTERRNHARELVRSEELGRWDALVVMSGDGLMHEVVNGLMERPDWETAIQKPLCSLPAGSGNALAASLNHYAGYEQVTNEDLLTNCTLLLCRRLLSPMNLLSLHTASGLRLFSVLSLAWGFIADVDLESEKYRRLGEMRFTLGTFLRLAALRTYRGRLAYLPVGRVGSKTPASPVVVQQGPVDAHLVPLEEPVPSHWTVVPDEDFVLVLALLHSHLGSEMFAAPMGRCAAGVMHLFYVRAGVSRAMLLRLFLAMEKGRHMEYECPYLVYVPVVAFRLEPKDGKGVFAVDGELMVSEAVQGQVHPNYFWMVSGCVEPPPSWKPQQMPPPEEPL
# Method: (§2) The effect of compounds in sphingosine kinase activity was examined using the […] screening system (Thermo Fisher Scientific System, Waltham, MA, USA). The kinase inhibition ability of compounds 1-11 along with RB005 was measured with final concentration of 20 μM. […] The data were presented as percentage inhibition of SK enzyme by individual compounds.
# SK2 enzyme = target: T5, SK2 enzyme (Homo sapiens, UniProt Q9NRA0); experiment: SK activity assay (Adapta screening system); type: biochemical; conditions: 20 μM, Figure 5A
# T5 construct: purchased Thermo Fisher Scientific
# T5 sequence (Q9NRA0 whole entry): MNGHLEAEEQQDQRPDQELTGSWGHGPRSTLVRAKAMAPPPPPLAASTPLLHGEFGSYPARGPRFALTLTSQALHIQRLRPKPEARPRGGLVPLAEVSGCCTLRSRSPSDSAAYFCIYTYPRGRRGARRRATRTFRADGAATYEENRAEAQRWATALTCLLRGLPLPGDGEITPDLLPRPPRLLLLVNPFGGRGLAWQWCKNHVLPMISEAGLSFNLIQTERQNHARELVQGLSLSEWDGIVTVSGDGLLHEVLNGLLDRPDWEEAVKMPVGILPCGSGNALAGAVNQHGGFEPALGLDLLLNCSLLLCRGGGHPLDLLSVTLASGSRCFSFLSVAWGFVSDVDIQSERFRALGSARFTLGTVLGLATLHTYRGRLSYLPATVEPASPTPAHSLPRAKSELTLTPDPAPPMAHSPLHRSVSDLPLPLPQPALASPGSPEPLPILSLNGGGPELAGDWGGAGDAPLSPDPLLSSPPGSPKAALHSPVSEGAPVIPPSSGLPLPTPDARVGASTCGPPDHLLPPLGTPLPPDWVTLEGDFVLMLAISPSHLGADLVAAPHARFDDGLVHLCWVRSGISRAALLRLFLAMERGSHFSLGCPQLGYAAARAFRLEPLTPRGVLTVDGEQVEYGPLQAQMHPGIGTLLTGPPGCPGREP
# Method: as §2
# S1PR1 = system: S1PR1; set-up: method as in PMID 27297359; conditions: in Figure 1, no unit; cited from earlier work
# S1PR2 = system: S1PR2; set-up: method as in PMID 27297359; conditions: in Figure 1, no unit; cited from earlier work
# S1PR3 = system: S1PR3; set-up: method as in PMID 27297359; conditions: in Figure 1, no unit; cited from earlier work
# S1PR4 = system: S1PR4; set-up: method as in PMID 27297359; conditions: in Figure 1, no unit; cited from earlier work
# S1PR5 = system: S1PR5; set-up: method as in PMID 27297359; conditions: in Figure 1, no unit; cited from earlier work
# [6] = % remaining after 30 min, NADPH
smiles,measurement,setting,value
CCCCCCCCc1ccc(CCC(N)(CO)CO)cc1 [FTY720],pIC50,"HCT116 cells; Homo sapiens, HCT-116, HCT116, 48 h treatment, 2.5–40 µM, read-out: relative IC50 (cell viability)",5.38
same,pIC50,"HT29 cells [1]; Homo sapiens, HT-29, HT29, 48 h treatment, 2.5–40 µM, read-out: relative IC50 (cell viability)",5.38
same,apoptosis (annexin V assay),HT29 cells [2],increased apoptosis
same,PP2A activity increase,PP2A in HCT116 cells,1.65 fold
same,CYP3A4 activity (% of control activity),CYP3A4,>100%
same,"liver microsomal stability, Rat (%)",[3]; [6],77.0%
same,liver microsomal stability (in words),[3]; rat,stable
same,"liver microsomal stability, Mouse (%)",[4]; [6],89.9%
same,liver microsomal stability (in words),[4]; mouse,stable
same,pIC50,SK1,4.90 to 5.30
same,pIC50,SK2,4.90 to 5.30
same,"liver microsomal stability, Human (%)","[5]; % remaining after 30 min, 0.5 mg/mL microsomes, NADPH",90.5%
same,liver microsomal stability (in words),[5]; human,stable
same,CYP1A2 activity (% of control activity),CYP1A2,86.5%
same,CYP2C9 activity (% of control activity),CYP2C9,96.8%
same,CYP2C19 activity (% of control activity),CYP2C19,86.8%
same,CYP2D6 activity (% of control activity),CYP2D6,92.0%
"CCCCCCCOc1ccc(CCN2CCC(O)CC2)cc1 [Compound 3, 1-(4-(Heptyloxy)phenethyl)piperidin-4-ol]",cytotoxic effect (cell viability),"HCT116 cells; HCT116, 20 and 40 µM, 24 h, Figure 2B","only 40 µM concentration of compounds 3, 5 and 9 shows significant cytotoxic effect"
same,cytotoxic effect (cell viability),"HT29 cells [1]; HT29, 20 and 40 µM, 24 h, Figure 2A",more cytotoxic than RB005 and 5-FU
same,SK1/2 inhibitory effect compared to RB005 (SK1),SK1 enzyme,three times higher
same,SK1/2 inhibitory effect compared to RB005 (SK2),SK2 enzyme,three times higher
CC1=C(CN2CC(C(=O)O)C2)CCc2cc(OCCCCc3ccccc3)ccc21 [Compound W-061],"Binding affinity, S1PR1",S1PR1,4.11
same,"Binding affinity, S1PR2",S1PR2,> 43800
same,"Binding affinity, S1PR3",S1PR3,1710
same,"Binding affinity, S1PR4",S1PR4,65.4
same,"Binding affinity, S1PR5",S1PR5,10.5
